Reference: paper PMC5983452 (PLoS ONE, 2018)
Structures can show the parent of a compound that is named as a salt. Where two headings read alike, the source gives them in different places.

System: panel of 240 cancer cell lines
Assay: Proliferation in a broad panel of 240 cancer cell lines, 2D culture (Eurofins Panlabs Oncopanel)
Assay type: cell-based
Details: read-out: IC50
Protocol: Cell lines used in these experiments were obtained from the following sources and were cultured according to conditions specified by the respective cell banks. […] The cell lines listed above were tested for mycoplasma and were negative. Cells were authenticated by STR method or vendor protocols. All 313 cell lines in the CRIPSR pooled screen were purchased from commercial vendors and were STR authenticated and mycoplasma negative. A broad panel of cancer cell lines was screened in the Eurofins Oncopanel. All cells in this panel were mycoplasma negative and STR verified.

Measured: IC50

NC1CCC(S(=O)(=O)N2C3CCC2CC(NC(=O)c2cc(C4CC4)on2)C3)CC1 [EPZ028862, N-((1R,3R,5S)-8-((1r,4R)-4-aminocyclohexylsulfonyl)-8-aza-bicyclo[3.2.1]octan-3-yl)-5-cyclopropylisoxazole-3-carboxamide hydrochloride]
8.66 µM: Homo sapiens, DOHH-2, DOHH-2, Haematopoietic and lymphoid
> 25 µM: 5637, Bladder | A7, Skin | AGS, Colon/GI | BC-1, Haematopoietic and lymphoid | BM-1604, BM-1604, Prostate | C32, Skin | C32TG, Skin | C-4 I, Female GU | CEM/C1, CEM-C1, Haematopoietic and lymphoid | CML-T1, CML-T1, Haematopoietic and lymphoid | DB, Haematopoietic and lymphoid | DK-MG, CNS | EB-3, Haematopoietic and lymphoid | EM-2, Haematopoietic and lymphoid | ES-2, Female GU | H4, CNS | HLE, Liver | HLF, Liver | HOS, Soft Tissue | HT, Haematopoietic and lymphoid | HT-3, Female GU | HUH-6-clone5, HUH-6 Clone 5, Liver | Homo sapiens, 22Rv1, 22Rv1, Prostate | Homo sapiens, 639-V, Bladder | Homo sapiens, 647-V, Bladder | Homo sapiens, 769-P, Kidney | Homo sapiens, 786-0, 786-O, Kidney | Homo sapiens, A101D, Skin | Homo sapiens, A 172, A172, CNS | Homo sapiens, A204, A204, Soft Tissue | Homo sapiens, A498, A498, Kidney | Homo sapiens, A549, A549, Lung | Homo sapiens, A673, A-673, Soft Tissue | Homo sapiens, A-375, A375, Skin | Homo sapiens, A-427, A427, Lung | Homo sapiens, A-431, A431, Skin | Homo sapiens, ACHN, Kidney | Homo sapiens, AN3-CA, AN3 CA, Female GU | Homo sapiens, ARH-77, ARH-77, Haematopoietic and lymphoid | Homo sapiens, ASPC1, AsPC-1, Pancreas | Homo sapiens, AU565, AU565, Breast | Homo sapiens, BE(2)-C, BE(2)C, CNS | Homo sapiens, BFTC-905, BFTC-905, Bladder | Homo sapiens, BHT-101, BHT-101, Endocrine | Homo sapiens, BPH-1, BPH1, Prostate | Homo sapiens, BT-20, BT20, Breast | Homo sapiens, BT-474, BT474, Breast | Homo sapiens, BT-549, BT-549, Breast | Homo sapiens, BV-173, BV-173, Haematopoietic and lymphoid | Homo sapiens, BXPC-3, BxPC-3, Pancreas | Homo sapiens, BeWo, Female GU | Homo sapiens, C-4-II, C-4 II, Female GU | Homo sapiens, C-33-A, C-33A, Female GU | Homo sapiens, CAKI-1, Caki-1, Kidney | Homo sapiens, CAKI-2, Caki-2, Kidney | Homo sapiens, CAL-27, Cal 27, Head and Neck | Homo sapiens, CAL-62, CAL-62, Endocrine | Homo sapiens, CAMA-1, CAMA-1, Breast | Homo sapiens, CAPAN-1, Capan-1, Pancreas | Homo sapiens, CCF-STTG1, CCF-STTG1, CNS | Homo sapiens, CCRF-CEM, CCRFCEM, Haematopoietic and lymphoid | Homo sapiens, CFPAC-1, CFPAC-1, Pancreas | Homo sapiens, CGTH-W-1, CGTH-W-1, Endocrine | Homo sapiens, CHL-1, CHL-1, Skin | Homo sapiens, CHP-212, CHP-212, CNS | Homo sapiens, COLO 201, Colo 201, Colon/GI | Homo sapiens, COLO 205, Colo 205, Colon/GI | Homo sapiens, COLO 320DM, Colon/GI | Homo sapiens, COLO-320-HSR, Colo 320 HSR, Colon/GI | Homo sapiens, COLO-829, COLO 829, Skin | Homo sapiens, COR-L23, COR-L23, Lung | Homo sapiens, COR-L105, COR-L105, Lung | Homo sapiens, CRO-AP2, CRO-AP2, Haematopoietic and lymphoid | Homo sapiens, Calu-1, Calu1, Lung | Homo sapiens, Calu-6, Calu6, Lung | Homo sapiens, Caov-3, CaOV3, Female GU | Homo sapiens, Capan-2, Capan-2, Pancreas | Homo sapiens, ChaGo-K-1, ChaGoK1, Lung | Homo sapiens, D283 Med, CNS | Homo sapiens, DBTRG-05MG, CNS | Homo sapiens, DLD-1, DLD-1, Colon/GI | Homo sapiens, DMS-53, DMS53, Lung | Homo sapiens, DMS-114, DMS114, Lung | Homo sapiens, DMS-273, DMS273, Lung | Homo sapiens, DU-145, DU145, Prostate | Homo sapiens, Daoy, CNS | Homo sapiens, Daudi, Haematopoietic and lymphoid | Homo sapiens, Detroit 562, Detroit 562, Head and Neck | Homo sapiens, DoTc2-4510, DoTc2 4510, Female GU | Homo sapiens, EFM-19, EFM-19, Breast | Homo sapiens, FaDu, Head and Neck | Homo sapiens, G-401, G-401, Kidney | Homo sapiens, G-402, G-402, Kidney | Homo sapiens, HCT-8, HCT-8, Colon/GI | Homo sapiens, HCT-15, HCT-15, Colon/GI | Homo sapiens, HCT-116, HCT-116, Colon/GI | Homo sapiens, HEC-1-A, Female GU | Homo sapiens, HEL 92.1.7, HEL-92-1-7, Haematopoietic and lymphoid | Homo sapiens, HMCB, Skin | Homo sapiens, HPAF-II, Pancreas | Homo sapiens, HT1197, HT-1197, Bladder | Homo sapiens, HT-29, HT-29, Colon/GI | Homo sapiens, HT-1080, HT-1080, Soft Tissue | Homo sapiens, HT-1376, HT1376, Bladder | Homo sapiens, HeLa, Female GU | Homo sapiens, HepG2, HepG2, Liver | Homo sapiens, Hs 294T, Skin | Homo sapiens, Hs 695T, Skin | Homo sapiens, Hs746T, HS 746T, Colon/GI | Homo sapiens, Hs-578T, Hs 578T, Breast | Homo sapiens, HuCCT-1, HuCCT1, Liver | Homo sapiens, HuP-T4, HuP-T4, Pancreas | Homo sapiens, J-RT3-T3-5, J-RT3-T3-5, Haematopoietic and lymphoid | Homo sapiens, JEG-3, JEG-3, Female GU | Homo sapiens, Jurkat, Haematopoietic and lymphoid | Homo sapiens, K562, K562, Haematopoietic and lymphoid | Homo sapiens, KATO III, Colon/GI | Homo sapiens, L-428, L-428, Haematopoietic and lymphoid | Homo sapiens, LNCaP, Prostate
